These results are taken from patent US20240239790A1, “7-Morpholino-1,6-Naphthyridin-5-yl Derivatives and Pharmaceutical Compositions Thereof Useful as DNA-PK Inhibitor” (adMare Therapeutics Society, priority 2021, published 2024).

Data set [1] concerns the target T1, DNA-PK (Homo sapiens, UniProt P78527).
T1 construct: purchased Invitrogen PR9107A
The data set can be described thus: DNA-PK Assay for Biochemical Enzymatic Inhibition (ADP Glo Kinase assay). Particulars: DNA-PK enzyme, Table 1. Put shortly:
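Human DNA-PK (25 ng) preincubated 15 min with compounds (ten three-fold dilutions) in HEPES pH 7.5, MgCl2, KCl, calf thymus DNA buffer, then substrate 434.4 μM and ATP 64.4 μM (final) for 60 min at room temperature. ADP-Glo luminescence; percent inhibition fitted by four-parameter regression for IC50.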

Data set [2] concerns the target T2, DNA-PK phosphorylation at Serine 2056 (Homo sapiens, UniProt P78527).
T2 construct: FaDu cells were purchased from ATCC; host or cells: FaDu
The data set can be described thus: Cellular Assay for Inhibition of DNA-PK Phosphorylation at Serine 2056 in FaDu cells (sandwich ELISA, neocarzinostatin). The class given is cell-based. Particulars: pSer2056 DNA-PK, neocarzinostatin 1 μg/mL, Table 1. In outline:
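pSer2056 and total DNA-PK were measured by sandwich ELISA in BCA-normalised FaDu lysates. Cells had 1 h compound exposure (0.3% DMSO), then 2 h with 1 μg/mL final neocarzinostatin. IC50 was fitted (variable slope) to % inhibition scaled against NCS-stimulated and DMSO-only controls.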

A short description of data set [3]: Hepatocyte Stability Assay, human hepatocytes. Type of data set: in vitro ADME. Particulars: for hepatocyte CLint at 1 uM: both sexes, cryopreserved hepatocytes, pH 7.3, human hepatocytes 0.7 million cells per mL, 1 uM compound; for Hepatocyte Stability Human % rem. 120 min: human hepatocytes. The protocol:
Cryopreserved mouse hepatocytes were obtained from a pool of 10 or more male CD-1 mice. Cryopreserved human hepatocytes were obtained from a pool of 10 or more donors of mixed gender. Final hepatocyte density was 0.7 million viable cells per mL and test compound concentration was 1 uM with a maximum of 0.01% DMSO. Cryopreserved hepatocytes were thawed, washed, and resuspended in Krebs-Heinslet buffer (pH 7.3). The reaction was initiated by adding the test compound into cell suspension and incubated for 0, […], 1, 1.5, and 2 h, respectively, at 37° C./5% C02. The reaction was stopped by adding acetonitrile into the incubation mixture. Samples were then mixed, transferred completely to another 96-well plate, and centrifuged. Supernatants were used for HPLC-MS/MS analysis. […] Peak areas corresponding to the test compound were recorded.

Consider `O=C(COc1cnc(N[C@H]2CC[C@@H](Oc3nc(N4CCOCC4)cc4ncccc34)CC2)nc1)N1CCOCC1` [Compound 61, 1-Morpholino-2-((2-(((1s,4s)-4-((7-morpholino-1,6-naphthyridin-5-yl)oxy)cyclohexyl)amino)pyrimidin-5-yl)oxy)ethan-1-one], for which the IC50 in data set [1] lay in the range of 0.5 to 1 nM. This compound showed an IC50 in data set [2] below 100 nM. In data set [3], the hepatocyte CLint at 1 uM was below 8.2 µL/min/1e6 cells and the “Hepatocyte Stability Human % rem. 120 min” value is “G (% remaining = 50-75%)”.

For `O=S(=O)(CC(F)F)Nc1cnc2cc(N3CCOCC3)nc(O[C@H]3CC[C@@H](Nc4ncccn4)CC3)c2c1` [Compound 193, 2,2-difluoro-N-(7-morpholino-5-(((1s,4s)-4-(pyrimidin-2-ylamino)cyclohexyl)oxy)-1,6-naphthyridin-3-yl)ethane-1-sulfonamide], in data set [1], the IC50 fell in the range of 0.5 to 1 nM. This compound also displayed an IC50 in data set [2] of 100 to 1000 nM. Besides, in data set [3], the hepatocyte CLint at 1 uM was below 8.2 µL/min/1e6 cells and the “Hepatocyte Stability Human % rem. 120 min” value is listed as “G (% remaining = 50-75%)”.

On to `CNC(=O)COc1cnc(N[C@H]2CC[C@@H](Oc3nc(N4CCOCC4)cc4ncccc34)CC2)nc1` [Compound 71, N-Methyl-2-((2-(((1s,4s)-4-((7-morpholino-1,6-naphthyridin-5-yl)oxy)cyclohexyl)amino)pyrimidin-5-yl)oxy)acetamide], for which the IC50 in data set [1] is below 0.5 nM. Moreover, the IC50 in data set [2] was below 100 nM. For the same compound, in data set [3], the hepatocyte CLint at 1 uM is below 8.2 µL/min/1e6 cells and the “Hepatocyte Stability Human % rem. 120 min” value is “G (% remaining = 50-75%)”.

For the compound `Cn1c(=O)n(C2CCOCC2)c2nc(N[C@H]3CC[C@@H](Oc4nc(N5CCOCC5)cc5ncccc45)CC3)ncc21` [Compound 96, 7-Methyl-2-(((1s,4s)-4-((7-morpholino-1,6-naphthyridin-5-yl)oxy)cyclohexyl)amino)-9-(tetrahydro-2H-pyran-4-yl)-7,9-dihydro-8H-purin-8-one], the IC50 in data set [1] was below 0.5 nM. Also, the half-maximal inhibitory concentration (IC50) in data set [2] is below 100 nM. Moreover, in data set [3], the hepatocyte CLint at 1 uM was above 8.2 µL/min/1e6 cells and the “Hepatocyte Stability Human % rem. 120 min” value is on record as “F (% remaining = 25-50%)”.

As to `CN(C)C(=O)COc1cnc(N[C@H]2CC[C@@H](Oc3nc(N4CCOCC4)cc4ncccc34)CC2)nc1` [Compound 54, N,N-Dimethyl-2-((2-(((1s,4s)-4-((7-morpholino-1,6-naphthyridin-5-yl)oxy)cyclohexyl)amino)pyrimidin-5-yl)oxy)acetamide], the IC50 in data set [1] lay within 0.5 to 1 nM. Further, the IC50 in data set [2] is below 100 nM. Besides, in data set [3], the hepatocyte CLint at 1 uM is below 8.2 µL/min/1e6 cells and the “Hepatocyte Stability Human % rem. 120 min” value is recorded as “F (% remaining = 25-50%)”.

In the case of `CN1CCN(C(=O)COc2cnc(N[C@H]3CC[C@@H](Oc4nc(N5CCOCC5)cc5ncccc45)CC3)nc2)CC1` [Compound 62, 1-(4-Methylpiperazin-1-yl)-2-((2-(((1s,4s)-4-((7-morpholino-1,6-naphthyridin-5-yl)oxy)cyclohexyl)amino)pyrimidin-5-yl)oxy)ethan-1-one], the half-inhibitory concentration (IC50) in data set [1] is below 0.5 nM. Moreover, the half-maximal inhibitory concentration (IC50) in data set [2] is below 100 nM. For the same compound, in data set [3], the hepatocyte CLint at 1 uM is above 8.2 µL/min/1e6 cells and the “Hepatocyte Stability Human % rem. 120 min” value was “F (% remaining = 25-50%)”.

On to `CN(C)C(=O)COc1ccc(C(=O)N[C@H]2CC[C@@H](Oc3nc(N4CCOCC4)cc4ncccc34)CC2)cn1` [Compound 117, 6-(2-(dimethylamino)-2-oxoethoxy)-N-((1s,4s)-4-((7-morpholino-1,6-naphthyridin-5-yl)oxy)cyclohexyl)nicotinamide], for which, in data set [1], the IC50 is 0.5 to 1 nM. The same compound returned an IC50 in data set [2] below 100 nM. In data set [3], the hepatocyte CLint at 1 uM is below 8.2 µL/min/1e6 cells and the “Hepatocyte Stability Human % rem. 120 min” value was “G (% remaining = 50-75%)”.

As to `O=C(COc1cnc(N[C@H]2CC[C@@H](Oc3nc(N4CCOCC4)cc4ncccc34)CC2)nc1)N1CCC1` [Compound 75, 1-(Azetidin-1-yl)-2-((2-(((1s,4s)-4-((7-morpholino-1,6-naphthyridin-5-yl)oxy)cyclohexyl)amino)pyrimidin-5-yl)oxy)ethan-1-one], in data set [1], the IC50 was below 0.5 nM. In data set [2], this compound returned an IC50 below 100 nM. In addition, in data set [3], the hepatocyte CLint at 1 uM was below 8.2 µL/min/1e6 cells and the “Hepatocyte Stability Human % rem. 120 min” value is given as “H (% remaining = 75-100%)”.

Consider `Cn1c(=O)n(C)c2nc(N[C@H]3CC[C@@H](Oc4nc(N5CCOCC5)cc5ncccc45)CC3)ncc21` [Compound 101, 7,9-Dimethyl-2-(((1s,4s)-4-((7-morpholino-1,6-naphthyridin-5-yl)oxy)cyclohexyl)amino)-7,9-dihydro-8H-purin-8-one], for which the IC50 in data set [1] was below 0.5 nM. In addition, the IC50 in data set [2] is below 100 nM. For the same compound, in data set [3], the hepatocyte CLint at 1 uM was above 8.2 µL/min/1e6 cells and the “Hepatocyte Stability Human % rem. 120 min” value is recorded as “F (% remaining = 25-50%)”.

Take `O=c1[nH]c2cnc(N[C@H]3CC[C@@H](Oc4nc(N5CCOCC5)cc5ncccc45)CC3)nc2n1C1CCOCC1` [Compound 95, 2-(((1s,4s)-4-((7-Morpholino-1,6-naphthyridin-5-yl)oxy)cyclohexyl)amino)-9-(tetrahydro-2H-pyran-4-yl)-7,9-dihydro-8H-purin-8-one]: in data set [1], the IC50 was in the range of 0.5 to 1 nM. This compound gave an IC50 in data set [2] below 100 nM. Moreover, in data set [3], the hepatocyte CLint at 1 uM was above 8.2 µL/min/1e6 cells and the “Hepatocyte Stability Human % rem. 120 min” value was “F (% remaining = 25-50%)”.

Take `Cn1c(=O)[nH]c2cnc(N[C@H]3CC[C@@H](Oc4nc(N5CCOCC5)cc5ncccc45)CC3)nc21` [Compound 100, 9-Methyl-2-(((1s,4s)-4-((7-morpholino-1,6-naphthyridin-5-yl)oxy)cyclohexyl)amino)-7,9-dihydro-8H-purin-8-one]: the results for the IC50 in data set [1] and in data set [2] were below 0.5 nM and below 100 nM, respectively. Besides, the hepatocyte CLint at 1 uM in data set [3] is above 8.2 µL/min/1e6 cells. Further, the “Hepatocyte Stability Human % rem. 120 min” value in data set [3] is given as “E (% remaining = 0-25%)”.

For `NCCOc1cnc(N[C@H]2CC[C@@H](Oc3nc(N4CCOCC4)cc4ncccc34)CC2)nc1` [Compound 65, 5-(2-Aminoethoxy)-N-((1s,4s)-4-((7-morpholino-1,6-naphthyridin-5-yl)oxy)cyclohexyl)pyrimidin-2-amine], the IC50 in data set [1] was below 0.5 nM; in data set [2], below 100 nM. The same compound came in with an intrinsic metabolic clearance (hepatocyte CLint) at 1 uM in data set [3] below 8.2 µL/min/1e6 cells. The “Hepatocyte Stability Human % rem. 120 min” value in data set [3] was “F (% remaining = 25-50%)”.

Regarding `CN(C)C(=O)Cn1c(=O)n(C)c2nc(N[C@H]3CC[C@@H](Oc4nc(N5CCOCC5)cc5ncccc45)CC3)ncc21` [Compound 102, N,N-Dimethyl-2-(9-methyl-2-(((1s,4s)-4-((7-morpholino-1,6-naphthyridin-5-yl)oxy)cyclohexyl)amino)-8-oxo-8,9-dihydro-7H-purin-7-yl)acetamide], in data set [1], the IC50 is below 0.5 nM. This compound also displayed a concentration for half-maximal inhibition (IC50) in data set [2] below 100 nM. Also, in data set [3], the hepatocyte CLint at 1 uM is below 8.2 µL/min/1e6 cells and the “Hepatocyte Stability Human % rem. 120 min” value was “G (% remaining = 50-75%)”.

As for `O=S(=O)(CF)Nc1cnc2cc(N3CCOCC3)nc(O[C@H]3CC[C@@H](Nc4ncccn4)CC3)c2c1` [Compound 192, 1-fluoro-N-(7-morpholino-5-(((1s,4s)-4-(pyrimidin-2-ylamino)cyclohexyl)oxy)-1,6-naphthyridin-3-yl)methanesulfonamide], the figures for the IC50 in data set [1] and in data set [2] were below 0.5 nM and 100 to 1000 nM, respectively. For the same compound, the intrinsic clearance (hepatocyte CLint) at 1 uM in data set [3] is below 8.2 µL/min/1e6 cells. The “Hepatocyte Stability Human % rem. 120 min” value in data set [3] was “H (% remaining = 75-100%)”.
